Data set [1] has as its system HSV-1 KOS strain expressing green fluorescent protein (GFP). Briefly: HSV-1 (KOS, GFP reporter) infection of NIH 3T3 cells, flow cytometry of GFP-positive cells. The class given is cell-based, herpes simplex virus-1 on NIH 3T3 cells. To be noted: for antiviral effect on HSV-1 infection (in words) / percentage of infected (GFP-positive) cells after treatment: NIH 3T3 cells; for antiviral effect on HSV-1 infection (in words): HSV-1 KOS GFP, flow cytometry / fluorescence images; for percentage of infected (GFP-positive) cells after treatment: MOI about 0.1, about 16 hours, no drug gives about 60%. As to the method: Cell culture: NIH 3T3 cells were grown on 15 cm plates in DMEM supplemented with about 5% Fetalplex and about 1% penicillin/streptomycin and kept in an about 37° C. incubator with about 5% CO2. To propagate cells, the experiments involved plating 107 on each […] plate and splitting the cells every 24 hours. For each experimental iteration, the experiments plated 2×10^5 cells/well in a 24-well plate. To minimize variance generated from different batches of cells, the trial group and crossover group were tested and compared using the same batch of cells for each iteration.
Viral infection: HSV-1 KOS strain expressing green fluorescent protein (GFP) in frame with the ICPO protein between amino acids 104 and 105 was used. The virus was prepared by propagation of virus on a confluent monolayer of Vero cells. Supernatants from infected cells were collected and centrifuged to separate cell debris. The cell pellet in residual medium was frozen and thawed three times at about −80° C. and about 37° C., respectively. The residual supernatant was then pooled together with the original supernatant, and viral titers were determined by a standard plaque assay on Vero cell monolayers. Multiplicity of infection (MOI) of about 0.1 was used throughout except as indicated. To control MOI, cells, virus, and drug combinations were added at the same time and incubated at about 37° C. After about 17 hours, culture medium was aspirated, and cells were detached with PBS-EDTA treatment at about 37° C. for about 5 minutes. Detached cells were transferred to flow cytometry tubes, pelleted, and re-suspended in about 1.6% PFA and kept at about 4° C. until analysis. A BD FACS Canto II was used for flow cytometry analysis.
HSV-1 infectious disease model: HSV-1 infection on an NIH 3T3 fibroblast cell line was used as an in vitro model system to search for new therapeutic drug combinations. The antiviral drugs that are used in the therapeutic model include three antiviral cytokines (IFN-α, IFN-β, and IFN-γ), ribavirin, acyclovir, and TNF-α. Virus-infected cells were treated with single drugs or drug combinations and cultured for about 16 hours. The HSV-1 strain used to infect the NIH 3T3 cells encodes a GFP reporter in infected cells, allowing flow cytometric analysis of cells to measure the rate and extent of infection, because the fluorescence intensity of GFP correlated to the presence of virus. Determination of efficacy of drug treatments was made by comparing the number of GFP-negative non-infected cells in the absence or presence of drug treatment. This value was considered the antiviral readout of a drug treatment.
The infectious dose of HSV-1 used (MOI: number of infectious virions per cell) is an important parameter when evaluating the outcome of potential therapies. […] An MOI of about 0.1 was used throughout the studies.
(Flow cytometry measures light scatter and fluorescence of single cells or particles in a stream.)

For data set [2] the following is noted: high doses of ribavirin; cited from earlier work.

As to `Nc1nc2c(ncn2COCCO)c(=O)[nH]1` [acyclovir], the “viral infection over incubation time, day 1 to day 4 (in words)” value in data set [1] (HSV-1-infected cells cultured 1 day to 4 days in presence of drug, flow cytometry) was “remained constant as time increased”. In data set [1], the “antiviral effect on HSV-1 infection (in words)” value is “reduced the infection rate, though a large percentage of cells were infected despite drug treatment” and the “percentage of infected (GFP-positive) cells after treatment” value is listed as “about 15%”.

In the case of `NC(=O)c1ncn([C@@H]2O[C@H](CO)[C@@H](O)[C@H]2O)n1` [ribavirin], in data set [1], the “percentage of infected (GFP-positive) cells after treatment” value is recorded as “about 5%”. The reported side effects entry in data set [2] was “cause anemia, to be teratogenic in some animal tests, and to inhibit DNA synthesis in a dosage dependent manner”.

Regarding TNF-α, in data set [1], the “antiviral effect on HSV-1 infection (in words)” value is recorded as “potentiated HSV-1 infection, resulting in more infected cells than the non-treated control”.

These data come from patent US20140309974A1 (priority 2013, published 2014).
